Reference: patent publication US12594292B2, “Antiviral prodrugs, intermediate-and long-acting formulations and methods” (priority 2022, dated 2026)

Legend:
SARS-CoV-2 [1] = test: SARS-CoV-2 infection assay in Calu-3 cells, nucleocapsid immunofluorescence (Example 6); settings: MOI 0.01, 44 hour
Calu-3 cells = test: Cytotoxicity in Calu-3 cells, nuclei count or CellTiter-Glo (Example 6); settings: for select compounds up to 100 μM by CellTiter-Glo
Experimental: After which an equal volume of CellTiter-Glo reagent (Cat. #G7570, Promega, Madison, WI) was added, mixed and luminescence recorded on a Veritas Microplate Luminometer (Turner BioSystems) according to manufacturer recommendations.

HCoV-229E = format: cell-based, human Coronavirus 229E
Huh7.5 cells = test: Cytotoxicity in Huh7.5 cells, nuclei count (Example 6); format: cell-based, human; settings: Huh7.5 cells; read-out: CC50
TMPRSS2-Vero cells = test: Cytotoxicity in TMPRSS2-Vero cells, nuclei count (Example 6); format: cell-based; settings: TMPRSS2-Vero cells; read-out: CC50
SARS-CoV-2 [2] = test: SARS-CoV-2 infection assay in Huh7.5 cells, nucleocapsid immunofluorescence (Example 6); format: cell-based; settings: MOI 0.1, 48 hours
SARS-CoV-2 [3] = test: SARS-CoV-2 infection assay in TMPRSS2-Vero cells, nucleocapsid immunofluorescence (Example 6); format: cell-based; settings: MOI 0.01, 32 hours
HFF cells = test: Persistence of TFVpp in HFF cells after a 3 day exposure
Source text: HFF cells were exposed to 1 micromolar drug for 3 days. At days 0, 1, 2, 4, 7, 14, 21, and 28, cells were trypsinized, counted, and processed for LC/MS measurement of TFVpp. Data were expressed at ftg/cell. nm=not meaningful; ftg—gemtogram.

HIV-1 = settings: HIV infected human PBMCs
Experimental: Antiviral activities were determined in HIV infected human PBMCs.

1-O-Octadecyl-2-O-(ethylcyclohexyl)-sn-glyceryl-phospho-RVn [Compound 15g]
EC50 (SARS-CoV-2 [1]): 147 ± 32 nM
EC90 (SARS-CoV-2 [1]): 1660 ± 798 nM
CC50 (Calu-3 cells): > 20000 nM

2-(Octadecyloxy)ethyl benzyl phospho-RVn [Compound 6c]
CC50 (MRC-5 cells): > 50000 nM
EC50 (HCoV-229E): 220 ± 56 nM
EC90 (HCoV-229E): 440 ± 85 nM

CCCCCCCCCCCCCCCCCCOCC(COP(=O)(O)OC[C@H]1O[C@@](C#N)(c2ccc3c(N)ncnn23)[C@H](O)[C@@H]1O)OCc1ccccc1 (mixture of isomers) [Compound 15e, 1-O-octadecyl-2-O-benzyl-rac-glyceryl-phospho-RVn]
CC50 (Huh7.5 cells): > 20000 nM
CC50 (TMPRSS2-Vero cells): > 20000 nM
CC50 (MRC-5 cells): 30900 ± 7700 nM
EC50 (SARS-CoV-2 [2]): 163 nM
EC90 (SARS-CoV-2 [2]): 514 nM
EC50 (SARS-CoV-2 [3]): 242 nM
EC90 (SARS-CoV-2 [3]): 642 nM
EC50 (SARS-CoV-2 [1]): 210 ± 62 nM
EC90 (SARS-CoV-2 [1]): 763 ± 490 nM
EC50 (HCoV-229E): 210 ± 4 nM
EC90 (HCoV-229E): 350 ± 6 nM
CC50 (Calu-3 cells): > 20000 nM

CCCCCCCCCCCCCCCCCCCCOP(=O)(O)OC[C@H]1O[C@](C#N)(c2ccc3c(N)ncnn23)[C@H](O)[C@@H]1O [Compound 4a, Eicosyl-phospho-RVn]
CC50 (Huh7.5 cells): > 20000 nM
CC50 (TMPRSS2-Vero cells): > 20000 nM
CC50 (MRC-5 cells): > 50000 nM
EC50 (SARS-CoV-2 [2]): 1410 nM
EC90 (SARS-CoV-2 [2]): 4750 nM
EC50 (SARS-CoV-2 [3]): 1170 nM
EC90 (SARS-CoV-2 [3]): 2180 nM
EC50 (SARS-CoV-2 [1]): 178 ± 35 nM
EC90 (SARS-CoV-2 [1]): 1320 ± 566 nM
EC50 (HCoV-229E): 910 nM
EC90 (HCoV-229E): 1800 nM
CC50 (Calu-3 cells): > 20000 nM

CCCCCCCCCCCCCCOC[C@H](COP(=O)(O)OC[C@H]1O[C@@](C#N)(c2ccc3c(N)ncnn23)[C@H](O)[C@@H]1O)OCc1ccccc1 [Compound 15a, 1-O-Tetradecyl-2-O-benzyl-sn-glyceryl-phospho-RVn]
CC50 (Huh7.5 cells): > 20000 nM
CC50 (TMPRSS2-Vero cells): > 20000 nM
CC50 (MRC-5 cells): > 50000 nM
EC50 (SARS-CoV-2 [2]): 156 nM
EC90 (SARS-CoV-2 [2]): 493 nM
EC50 (SARS-CoV-2 [3]): 901 nM
EC90 (SARS-CoV-2 [3]): 1690 nM
EC50 (SARS-CoV-2 [1]): 212 ± 25 nM
EC90 (SARS-CoV-2 [1]): 536 ± 150 nM
EC50 (HCoV-229E): 760 ± 340 nM
EC90 (HCoV-229E): 3250 nM
CC50 (Calu-3 cells): > 20000 nM

CCCCCCCCCCCCCCCCOC[C@H](COP(=O)(O)OC[C@H]1O[C@@](C#N)(c2ccc3c(N)ncnn23)[C@H](O)[C@@H]1O)OCc1ccccc1 [Compound 15b, 1-O-Hexadecyl-2-O-benzyl-sn-glyceryl-phospho-RVn]
CC50 (Huh7.5 cells): > 20000 nM
CC50 (TMPRSS2-Vero cells): > 20000 nM
CC50 (MRC-5 cells): > 50000 nM
EC50 (SARS-CoV-2 [2]): 130 nM
EC90 (SARS-CoV-2 [2]): 309 nM
EC50 (SARS-CoV-2 [3]): 395 nM
EC90 (SARS-CoV-2 [3]): 810 nM
EC50 (SARS-CoV-2 [1]): 101 ± 20 nM
EC90 (SARS-CoV-2 [1]): 623 ± 272 nM
EC50 (HCoV-229E): 560 ± 270 nM
EC90 (HCoV-229E): 980 ± 380 nM
CC50 (Calu-3 cells): 88200 ± 8890 nM

CCCCCCCCCCCCCCCCCCOC[C@H](COP(=O)(O)OC[C@H]1O[C@@](C#N)(c2ccc3c(N)ncnn23)[C@H](O)[C@@H]1O)OCCCCCCCC [Compound 15f, 1-O-Octadecyl-2-O-octyl-sn-glyceryl-phospho-RVn]
CC50 (Huh7.5 cells): > 20000 nM
CC50 (TMPRSS2-Vero cells): > 20000 nM
CC50 (MRC-5 cells): > 50000 nM
EC50 (SARS-CoV-2 [2]): 710 nM
EC90 (SARS-CoV-2 [2]): 1710 nM
EC50 (SARS-CoV-2 [3]): 1330 nM
EC90 (SARS-CoV-2 [3]): 2350 nM
EC50 (SARS-CoV-2 [1]): 410 ± 60 nM
EC90 (SARS-CoV-2 [1]): 2310 ± 738 nM
EC50 (HCoV-229E): 120 ± 57 nM
EC90 (HCoV-229E): 290 ± 58 nM
CC50 (Calu-3 cells): > 20000 nM

CCCCCCCCCCCCCCCCCCOC[C@H](COP(=O)(O)OC[C@H]1O[C@@](C#N)(c2ccc3c(N)ncnn23)[C@H](O)[C@@H]1O)OCc1cccc(F)c1 [Compound 15h, 1-O-Octadecyl-2-O-(3-fluoro-benzyl)-sn-glyceryl-phospho-RVn]
CC50 (Huh7.5 cells): > 20000 nM
CC50 (TMPRSS2-Vero cells): > 20000 nM
CC50 (MRC-5 cells): 22900 ± 100 nM
EC50 (SARS-CoV-2 [2]): 182 nM
EC90 (SARS-CoV-2 [2]): 444 nM
EC50 (SARS-CoV-2 [3]): 270 nM
EC90 (SARS-CoV-2 [3]): 629 nM
EC50 (SARS-CoV-2 [1]): 216 ± 62 nM
EC90 (SARS-CoV-2 [1]): 548 ± 368 nM
EC50 (HCoV-229E): 1400 ± 58 nM
EC90 (HCoV-229E): 2800 ± 40 nM
CC50 (Calu-3 cells): > 20000 nM

CCCCCCCC/C=C\CCCCCCCCOC[C@H](COP(=O)(O)OC[C@H]1O[C@@](C#N)(c2ccc3c(N)ncnn23)[C@H](O)[C@@H]1O)OCc1ccccc1 [Compound 15l, 1-O-Oleyl-2-O-benzyl-sn-glyceryl-phospho-RVn]
CC50 (Huh7.5 cells): > 20000 nM
CC50 (TMPRSS2-Vero cells): > 20000 nM
CC50 (MRC-5 cells): > 50000 nM
EC50 (SARS-CoV-2 [2]): 100 nM
EC90 (SARS-CoV-2 [2]): 246 nM
EC50 (SARS-CoV-2 [3]): 295 nM
EC90 (SARS-CoV-2 [3]): 568 nM
EC50 (SARS-CoV-2 [1]): 198 ± 77 nM
EC90 (SARS-CoV-2 [1]): 294 ± 93 nM
EC50 (HCoV-229E): 130 ± 29 nM
EC90 (HCoV-229E): 260 ± 3.7 nM
CC50 (Calu-3 cells): 79000 ± 6950 nM

CCCCCCCCCCCCCCCCCCOC[C@@H](COP(=O)(O)OC[C@H]1O[C@@](C#N)(c2ccc3c(N)ncnn23)[C@H](O)[C@@H]1O)OCc1ccccc1 [Compound 15n, 3-O-Octadecyl-2-O-benzyl-sn-glyceryl-1-phospho-RVn]
EC50 (SARS-CoV-2 [1]): 163 ± 22 nM
EC90 (SARS-CoV-2 [1]): 623 ± 183 nM
CC50 (Calu-3 cells): > 20000 nM

CCCCCCCCCCCCCCCCCCOC[C@H](COP(=O)(O)OC[C@H]1O[C@@](C#N)(c2ccc3c(N)ncnn23)[C@H](O)[C@@H]1O)OCc1cccc(C(F)(F)F)c1 [Compound 15o, 1-O-Octadecyl-2-O-(3-trifluoromethyl)benzyl-sn-glyceryl-phospho-RVn]
CC50 (MRC-5 cells): 16000 ± 2800 nM
EC50 (SARS-CoV-2 [1]): 166 ± 68 nM
EC90 (SARS-CoV-2 [1]): 278 ± 109 nM
EC50 (HCoV-229E): 160 ± 46 nM
EC90 (HCoV-229E): 460 ± 270 nM
CC50 (Calu-3 cells): > 20000 nM

CCCCCCCCCCCCCCCCCCOC[C@H](COP(=O)(O)OC[C@H]1O[C@@](C#N)(c2ccc3c(N)ncnn23)[C@H](O)[C@@H]1O)OCc1ccc(C(F)(F)F)cc1 [Compound 15p, 1-O-Octadecyl-2-O-(4-trifluoromethyl)benzyl-sn-glyceryl-phospho-RVn]
CC50 (MRC-5 cells): 13900 ± 8800 nM
EC90 (HCoV-229E): 330 ± 39 nM

CCCCCCCCCCCCCCCCCCOC[C@H](COP(=O)(OCc1ccccc1)OC[C@H]1O[C@@](C#N)(c2ccc3c(N)ncnn23)[C@H](O)[C@@H]1O)OCc1ccccc1 (stereo partly drawn) [Compound 17, 1-O-Octadecyl-2-O-benzyl-sn-glyceryl-benzyl-phospho-RVn]
CC50 (Huh7.5 cells): > 20000 nM
CC50 (TMPRSS2-Vero cells): > 20000 nM
CC50 (MRC-5 cells): > 50000 nM
EC50 (SARS-CoV-2 [2]): 3540 nM
EC90 (SARS-CoV-2 [2]): 16400 nM
EC50 (SARS-CoV-2 [3]): 7440 nM
EC90 (SARS-CoV-2 [3]): 15300 nM
EC50 (SARS-CoV-2 [1]): 5320 ± 1390 nM
EC90 (SARS-CoV-2 [1]): 10900 ± 5480 nM
EC50 (HCoV-229E): 1500 ± 930 nM
EC90 (HCoV-229E): 4270 ± 880 nM
CC50 (Calu-3 cells): > 20000 nM

CCCCCCCCCCCCCCCCCCOC[C@H](COP1(=O)OC[C@H]2O[C@@](C#N)(c3ccc4c(N)ncnn34)[C@H](O)[C@@H]2O1)OCc1ccccc1 (stereo partly drawn) [Compound 18-eq, GS-441524-3′,5′-cyclic monophosphate, 1-O-octadecyl-2-O-benzyl-sn-glyceryl ester]
EC50 (SARS-CoV-2 [1]): > 20000 nM
EC90 (SARS-CoV-2 [1]): > 20000 nM
CC50 (Calu-3 cells): > 20000 nM

CCCCCCCCCCCCCCCCCCOCCOP1(=O)OCC2OC(C#N)(c3ccc4c(N)ncnn34)C(O)C2O1 (stereo not drawn) [Compound 19-ax]
EC50 (SARS-CoV-2 [1]): 8150 ± 8420 nM
EC90 (SARS-CoV-2 [1]): > 20000 nM
CC50 (Calu-3 cells): > 20000 nM

CCCCCCCCCCCCCCCCCCOCCO[P@]1(=O)OC[C@H]2O[C@](C#N)(c3ccc4c(N)ncnn34)[C@H](O)[C@@H]2O1 [Compound 19-eq]
EC50 (SARS-CoV-2 [1]): 2760 ± 808 nM
EC90 (SARS-CoV-2 [1]): 19200 ± 12700 nM
CC50 (Calu-3 cells): > 20000 nM

CCCCCCCCCCCCCCCCOCCCOP(=O)(CO[C@H](C)Cn1cnc2c(N)ncnc21)OCc1ccccc1 (stereo partly drawn) [HDP-Bn-TFV]
T1/2 of TFVpp (HFF cells): 1.8
Tmax of TFVpp (HFF cells): 0 h

CCCCCCCCCCCCCCCCCCOCCOP(=O)(CO[C@H](C)Cn1cnc2c(N)nc(N)nc21)OCc1ccccc1 (stereo partly drawn) [ODE-Bn-PMPDAP, Octadecyloxyethyl benzyl 9-(R)-[(2-phosphonomethoxy)propyl]-2,6-diaminopurine]
EC50 (HIV-1): active

CCCCCCCC/C=C\CCCCCCCCOCCOP(=O)(CO[C@H](C)Cn1cnc2c(N)nc(N)nc21)OCc1ccccc1 (stereo partly drawn) [OLE-Bn-PMPDAP, Oleyloxyethyl benzyl 9-(R)-[(2-phosphonomethoxy)propyl]-2,6-diaminopurine]
EC50 (HIV-1): active
